# Results reported in PMC3478282, “Probing the Putative Active Site of YjdL: An Unusual Proton-Coupled Oligopeptide Transporter from E. coli” (PLoS ONE, 2012).
# Residues, ends and D or L forms follow the SMILES beside them.
# Key:
# Format in all cases: cell-based, E. coli
# [1] = target: T1, WT-YdgR (Escherichia coli, UniProt P77304); test: cell-based; settings: IC50 (inhibition of β-Ala-Lys(AMCA) uptake)
# T1 construct: expressed in transfected cells; host or cells: E. coli BL21(DE3)pLysS, pTTQ18-ydgR, IPTG-induced
# T1 sequence (P77304 1-500): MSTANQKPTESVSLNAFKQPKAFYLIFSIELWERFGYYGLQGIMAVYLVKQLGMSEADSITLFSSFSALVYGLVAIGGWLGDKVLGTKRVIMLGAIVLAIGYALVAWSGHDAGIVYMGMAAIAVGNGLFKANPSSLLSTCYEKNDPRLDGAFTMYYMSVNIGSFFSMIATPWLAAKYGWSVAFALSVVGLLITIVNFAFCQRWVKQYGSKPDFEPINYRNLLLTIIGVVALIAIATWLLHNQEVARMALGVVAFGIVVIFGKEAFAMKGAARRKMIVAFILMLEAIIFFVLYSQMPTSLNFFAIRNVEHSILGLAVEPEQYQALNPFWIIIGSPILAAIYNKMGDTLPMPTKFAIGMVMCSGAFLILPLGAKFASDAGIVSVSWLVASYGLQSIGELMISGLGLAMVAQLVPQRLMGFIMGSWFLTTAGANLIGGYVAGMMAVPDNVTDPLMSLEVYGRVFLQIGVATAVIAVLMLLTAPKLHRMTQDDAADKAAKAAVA
# Protocol: Plasmids were transformed into E. coli BL21(DE3)pLysS cells by heat shock and transformants were selected on agar plates containing 100 µg/mL ampicillin and 34 µg/mL chloramphenicol. Single transformants were inoculated into 2 mL LB-media with antibiotics as above and grown overnight. The cultures were diluted 1∶50 in 5 mL LB-media with antibiotics as above, and at an OD600 of 0.5–0.8 protein expression was induced by the addition of 1 mM isopropyl β-D-1-thiogalactopyranoside (IPTG). […]
# (§1) Uptake assays were performed as previously described, [20]. In a final assay volume of 100 µL; 0.2 mM β-Ala-Lys-N-7-amino-4-methylcoumarin-3-acetic acid (β-Ala-Lys(AMCA), Biotrend) (10 µL) and various concentrations of ligands (purchased from Bachem or Sigma-Aldrich) or uptake buffer (50 µL) were incubated with bacterial cell suspension (OD600 = 10, 40 µL) at 37°C. After 5 min, the uptake was stopped by addition of 500 µL ice-cold uptake buffer followed by immediate centrifugation and washing twice in ice-cold uptake buffer. Finally the cell pellet was resuspended in 100 µL uptake buffer, and the uptake was quantified by fluorescence measurements (excitation at 340 nm and emission at 460 nm) on a Safire 2 fluorimeter. Non-specific uptake was measured as described above on IPTG-induced E. coli BL21(DE3)pLysS cells harboring the empty pTTQ18 vector. All uptake assay experiments were reproduced at least three times independently and data analyses were performed using GraphPad Prism ver. 5.
# [2] = target: T2, YdgR Tyr71Phe (Escherichia coli, UniProt P77304, Y71F); test: β-Ala-Lys(AMCA) uptake and inhibition assay, YdgR Tyr71Phe
# T2 construct: host or cells: E. coli BL21(DE3)pLysS
# Protocol: (§2) Plasmids were transformed into E. coli BL21(DE3)pLysS cells by heat shock and transformants were selected on agar plates containing 100 µg/mL ampicillin and 34 µg/mL chloramphenicol. Single transformants were inoculated into 2 mL LB-media with antibiotics as above and grown overnight. The cultures were diluted 1∶50 in 5 mL LB-media with antibiotics as above, and at an OD600 of 0.5–0.8 protein expression was induced by the addition of 1 mM isopropyl β-D-1-thiogalactopyranoside (IPTG). The cells were harvested after three hours of induction by centrifugation and resuspended in uptake buffer (50 mM MES pH 6.5, 140 mM NaCl, 5.4 mM KCl, 1.8 mM CaCl2, 0.8 mM MgSO4, and 5 mM glucose).
# as §1, with “After 5 min, the uptake was stopped by addition of 500 µL ice-cold uptake buffer followed by immediate centrifugation and washing twice in ice-cold uptake buffer.” left out, “All uptake assay experiments were reproduced at least three times independently and data analyses were performed using GraphPad Prism ver. 5.” left out
# [3] = target: T3, YdgR Tyr292Phe (Escherichia coli, UniProt P77304, Y292F); test: β-Ala-Lys(AMCA) uptake inhibition assay, YdgR Tyr292Phe; settings: 0.2 mM β-Ala-Lys(AMCA), 5 min incubation, pH 6.5; ±SEM, n≥3
# T3 construct: host or cells: E. coli BL21(DE3)pLysS
# Protocol: as §2
# as §1, with “After 5 min, the uptake was stopped by addition of 500 µL ice-cold uptake buffer followed by immediate centrifugation and washing twice in ice-cold uptake buffer.” left out, “All uptake assay experiments were reproduced at least three times independently and data analyses were performed using GraphPad Prism ver. 5.” left out
# [4] = target: T4, YdgR Tyr292Ala (Escherichia coli, UniProt P77304, Y292A); test: β-Ala-Lys(AMCA) uptake and inhibition assay, YdgR Tyr292Ala
# T4 construct: host or cells: E. coli BL21(DE3)pLysS
# Protocol: as §2
# as §1, with “After 5 min, the uptake was stopped by addition of 500 µL ice-cold uptake buffer followed by immediate centrifugation and washing twice in ice-cold uptake buffer.” left out, “All uptake assay experiments were reproduced at least three times independently and data analyses were performed using GraphPad Prism ver. 5.” left out
# [5] = target: T5, YdgR Tyr38Phe (Escherichia coli, UniProt P77304, Y38F); test: β-Ala-Lys(AMCA) uptake and inhibition assay, YdgR Tyr38Phe
# T5 construct: host or cells: E. coli BL21(DE3)pLysS
# Protocol: as §2
# as §1, with “After 5 min, the uptake was stopped by addition of 500 µL ice-cold uptake buffer followed by immediate centrifugation and washing twice in ice-cold uptake buffer.” left out, “All uptake assay experiments were reproduced at least three times independently and data analyses were performed using GraphPad Prism ver. 5.” left out
# [6] = target: T6, YjdL Asp392Glu (Escherichia coli, UniProt P39276, D392E); test: β-Ala-Lys(AMCA) uptake assay, YjdL Asp392Glu; settings: standard conditions: 0.2 mM, 5 min, pH 6.5 (Figure 3)
# T6 construct: host or cells: E. coli BL21(DE3)pLysS
# Protocol: as §2
# as §1, with “After 5 min, the uptake was stopped by addition of 500 µL ice-cold uptake buffer followed by immediate centrifugation and washing twice in ice-cold uptake buffer.” left out, “All uptake assay experiments were reproduced at least three times independently and data analyses were performed using GraphPad Prism ver. 5.” left out
# [7] = target: T7, YjdL Lys117Arg (Escherichia coli, UniProt P39276, K117R); test: β-Ala-Lys(AMCA) uptake assay, YjdL Lys117Arg; settings: 0.2 mM, 5 min, pH 6.5 (Figure 3)
# T7 construct: host or cells: E. coli BL21(DE3)pLysS
# Protocol: as §2
# as §1, with “After 5 min, the uptake was stopped by addition of 500 µL ice-cold uptake buffer followed by immediate centrifugation and washing twice in ice-cold uptake buffer.” left out, “All uptake assay experiments were reproduced at least three times independently and data analyses were performed using GraphPad Prism ver. 5.” left out
# [8] = target: T8, YjdL Lys117Gln (Escherichia coli, UniProt P39276, K117Q); test: β-Ala-Lys(AMCA) uptake assay, YjdL Lys117Gln; settings: 0.2 mM, 5 min, pH 6.5 (Figure 3)
# T8 construct: host or cells: E. coli BL21(DE3)pLysS
# Protocol: as §2
# as §1, with “After 5 min, the uptake was stopped by addition of 500 µL ice-cold uptake buffer followed by immediate centrifugation and washing twice in ice-cold uptake buffer.” left out, “All uptake assay experiments were reproduced at least three times independently and data analyses were performed using GraphPad Prism ver. 5.” left out
# [9] = target: T9, YjdL Tyr21Arg (Escherichia coli, UniProt P39276, Y21R); test: β-Ala-Lys(AMCA) uptake assay, YjdL Tyr21Arg; settings: 0.2 mM, 5 min, pH 6.5 (Figure 3)
# T9 construct: host or cells: E. coli BL21(DE3)pLysS
# Protocol: as §2
# as §1, with “After 5 min, the uptake was stopped by addition of 500 µL ice-cold uptake buffer followed by immediate centrifugation and washing twice in ice-cold uptake buffer.” left out, “All uptake assay experiments were reproduced at least three times independently and data analyses were performed using GraphPad Prism ver. 5.” left out
# [10] = target: T10, YjdL Tyr25Leu (Escherichia coli, UniProt P39276, Y25L); test: β-Ala-Lys(AMCA) uptake assay, YjdL Tyr25Leu; settings: 0.2 mM, 5 min, pH 6.5 (Figure 3)
# T10 construct: expressed in transfected cells; host or cells: E. coli BL21(DE3)pLysS, pTTQ18-yjdL mutant (QuikChange)
# Protocol: as §2
# as §1, with “After 5 min, the uptake was stopped by addition of 500 µL ice-cold uptake buffer followed by immediate centrifugation and washing twice in ice-cold uptake buffer.” left out, “All uptake assay experiments were reproduced at least three times independently and data analyses were performed using GraphPad Prism ver. 5.” left out
# [11] = target: T11, YjdL Gly284Met (Escherichia coli, UniProt P39276, G284M); test: β-Ala-Lys(AMCA) uptake assay, YjdL Gly284Met; settings: 0.2 mM, 5 min, pH 6.5 (Figure 3)
# T11 construct: host or cells: E. coli BL21(DE3)pLysS
# Protocol: as §2
# as §1, with “After 5 min, the uptake was stopped by addition of 500 µL ice-cold uptake buffer followed by immediate centrifugation and washing twice in ice-cold uptake buffer.” left out, “All uptake assay experiments were reproduced at least three times independently and data analyses were performed using GraphPad Prism ver. 5.” left out
# [12] = system: YjdL Tyr113Asn; test: β-Ala-Lys(AMCA) uptake assay, YjdL Tyr113Asn; settings: 0.2 mM, 5 min, pH 6.5 (Figure 3)
# Protocol: as §2
# as §1, with “After 5 min, the uptake was stopped by addition of 500 µL ice-cold uptake buffer followed by immediate centrifugation and washing twice in ice-cold uptake buffer.” left out, “All uptake assay experiments were reproduced at least three times independently and data analyses were performed using GraphPad Prism ver. 5.” left out
# [13] = 0.2 mM β-Ala-Lys(AMCA), 5 min incubation, pH 6.5, ±SEM, n≥3
# [14] = 0.2 mM, 5 min, pH 6.5 (Figure 4)
# T2 sequence (P77304 whole entry Y71F): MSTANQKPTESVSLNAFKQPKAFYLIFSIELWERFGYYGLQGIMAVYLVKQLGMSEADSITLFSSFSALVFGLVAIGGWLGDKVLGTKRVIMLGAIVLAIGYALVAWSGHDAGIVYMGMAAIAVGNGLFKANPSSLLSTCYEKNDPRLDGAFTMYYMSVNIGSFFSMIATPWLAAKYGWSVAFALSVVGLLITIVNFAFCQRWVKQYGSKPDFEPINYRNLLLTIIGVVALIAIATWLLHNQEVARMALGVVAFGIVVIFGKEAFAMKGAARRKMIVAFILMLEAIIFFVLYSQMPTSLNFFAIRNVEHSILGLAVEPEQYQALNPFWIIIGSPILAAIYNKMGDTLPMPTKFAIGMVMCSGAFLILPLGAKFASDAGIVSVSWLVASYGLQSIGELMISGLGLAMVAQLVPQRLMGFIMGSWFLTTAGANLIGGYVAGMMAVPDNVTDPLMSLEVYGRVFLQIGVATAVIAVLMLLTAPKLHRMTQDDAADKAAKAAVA
# T4 sequence (P77304 whole entry Y292A): as the sequence (P77304 whole entry Y71F) above, with F71Y, Y292A counted along it
# T5 sequence (P77304 whole entry Y38F): as the sequence (P77304 whole entry Y71F) above, with Y38F, F71Y counted along it
# T7 sequence (P39276 whole entry K117R): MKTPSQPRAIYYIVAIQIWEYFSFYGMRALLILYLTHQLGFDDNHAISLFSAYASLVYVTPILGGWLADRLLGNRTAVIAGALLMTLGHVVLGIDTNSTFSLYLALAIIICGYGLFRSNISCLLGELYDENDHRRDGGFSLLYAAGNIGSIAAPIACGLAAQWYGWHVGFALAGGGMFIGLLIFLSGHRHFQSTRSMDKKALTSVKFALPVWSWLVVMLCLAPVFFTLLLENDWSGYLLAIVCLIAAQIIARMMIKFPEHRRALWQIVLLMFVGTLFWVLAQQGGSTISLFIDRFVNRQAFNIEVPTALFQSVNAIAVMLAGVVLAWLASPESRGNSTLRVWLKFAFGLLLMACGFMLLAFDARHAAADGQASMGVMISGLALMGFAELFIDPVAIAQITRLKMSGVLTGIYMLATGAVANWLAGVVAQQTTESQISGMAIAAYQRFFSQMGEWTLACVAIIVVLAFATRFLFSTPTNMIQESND
# T3 sequence (P77304 whole entry Y292F): as the sequence (P77304 whole entry Y71F) above, with F71Y, Y292F counted along it
# T6 sequence (P39276 whole entry D392E): as the sequence (P39276 whole entry K117R) above, with R117K, D392E counted along it
# T11 sequence (P39276 whole entry G284M): as the sequence (P39276 whole entry K117R) above, with R117K, G284M counted along it
# T10 sequence (P39276 whole entry Y25L): as the sequence (P39276 whole entry K117R) above, with Y25L, R117K counted along it
# T9 sequence (P39276 whole entry Y21R): as the sequence (P39276 whole entry K117R) above, with Y21R, R117K counted along it
# T8 sequence (P39276 whole entry K117Q): as the sequence (P39276 whole entry K117R) above, with R117Q counted along it
molecule,measurement,setting,value
C[C@H](N)C(=O)N[C@@H](C)C(=O)O [Ala-Ala] (H-Ala-Ala-OH),IC50,[1]; WT-YdgR a,390 ± 40 µM
same,IC50,[1]; WT-YdgR b,1040 ± 60 µM
same,IC50,[2]; [13],370 ± 30 µM
same,IC50,[3],150 ± 30 µM
same,IC50,[4]; [13],590 ± 50 µM
same,IC50,"[5]; 0.5 mM β-Ala-Lys(AMCA), 15 min incubation, pH 6.5, ±SEM, n≥3, read-out: IC50 (inhibition of β-Ala-Lys(AMCA) uptake), YdgR Tyr38Phe b",920 ± 60 µM
β-Ala-Lys-N-7-amino-4-methylcoumarin-3-acetic acid [β-Ala-Lys(AMCA)],"β-Ala-Lys(AMCA) uptake level, YdgR Tyr71Phe",[2]; [14],27%
same,"increase of β-Ala-Lys(AMCA) uptake, YdgR Tyr292Ala",[4]; [14],~4 fold
same,"β-Ala-Lys(AMCA) uptake level, YdgR Tyr38Phe",[5]; [14],10%
same,"β-Ala-Lys(AMCA) uptake level, YjdL Asp392Glu",[6],26%
same,"β-Ala-Lys(AMCA) uptake level, YjdL Lys117Arg",[7],17%
same,"β-Ala-Lys(AMCA) uptake level, YjdL Lys117Gln",[8],9%
same,"β-Ala-Lys(AMCA) uptake level, YjdL Tyr21Arg",[9],11%
same,"β-Ala-Lys(AMCA) uptake level, YjdL Tyr25Leu",[10],14%
same,"β-Ala-Lys(AMCA) uptake level, YjdL Gly284Met",[11],20%
same,"increase of β-Ala-Lys(AMCA) uptake, YjdL Tyr113Asn",[12],~2 fold
